According to patent US20090054392A1, “NAPHTHYLPYRIMIDINE, NAPHTHYLPYRAZINE AND NAPHTHYLPYRIDAZINE ANALOGS AND THEIR USE AS AGONISTS OF THE WNT-BETA-CATENIN CELLULAR MESSAGING SYSTEM” (Wyeth, priority 2007, published 2009):

Test system: Dkk1-LRP5-TCF-Luciferase
Experiment: Functional Dkk1-LRP5-TCF-Luciferase Assay in U2OS Cells
Conditions: for fold induction at 2 µM / EC50 / fold induction at 20 µM: Homo sapiens, U2OS; for fold induction at 2 µM: read-out: B = TCF ACTIVITY/DMSO CONTROL Fold induction @ 2.0 uM, 2.0 uM compound; for fold induction at 20 µM: read-out: C = TCF ACTIVITY/DMSO CONTROL Fold induction @ 20.0 uM, 20.0 uM compound; for A = MAX FOLD Induction/DMSO CONTROL: maximum fold induction over DMSO control

NCC1CCN(c2nccc(-c3ccc4cc(-c5ccccc5)ccc4c3)n2)CC1 [1-{1-[4-(6-phenyl-2-naphthyl)pyrimidin-2-yl]piperidin-4-yl}methanamine]
fold induction at 2 µM: 1.63

CN(C)S(=O)(=O)N1CC[C@H](Nc2nccc(-c3ccc4ccccc4c3)n2)C1 [(3S)—N,N-dimethyl-3-{[4-(2-naphthyl)pyrimidin-2-yl]amino}pyrrolidine-1-sulfonamide]
EC50: 3.96 µM | fold induction at 2 µM: 1.09 | fold induction at 20 µM: 2.01 | A = MAX FOLD Induction/DMSO CONTROL: 2.050 fold

NC(=O)NCC1CN(c2nccc(-c3ccc4ccccc4c3)n2)C1 [N-({1-[4-(2-naphthyl)pyrimidin-2-yl]azetidin-3-yl}methyl)urea]
fold induction at 2 µM: 1.46 | fold induction at 20 µM: 1.64

CN(CCCO)[C@H]1CCN(c2nccc(-c3ccc4ccccc4c3)n2)C1 [3-(methyl{(3S)-1-[4-(2-naphthyl)pyrimidin-2-yl]pyrrolidin-3-yl}amino)propan-1-ol]
fold induction at 2 µM: 1.1

CC(C)(C)OC(=O)NC1CCCN(c2nccc(-c3ccc4ccccc4c3)n2)CC1 (stereo not drawn) [tert-butyl {1-[4-(2-naphthyl)pyrimidin-2-yl]azepan-4-yl}carbamate]
fold induction at 2 µM: 1.34 | fold induction at 20 µM: 0.33

NCC1CCN(c2nccc(-c3ccc4ccccc4c3)n2)C1 (stereo not drawn) [1-{1-[4-(2-naphthyl)pyrimidin-2-yl]pyrrolidin-3-yl}methanamine]
EC50: 2.26 µM | fold induction at 2 µM: 4.53 | fold induction at 20 µM: 0.01 | A = MAX FOLD Induction/DMSO CONTROL: 4.063 fold

CC(C)(C)OC(=O)N[C@@H](CO)C1CCN(c2nccc(-c3ccc4ccccc4c3)n2)CC1 [tert-butyl ((1R)-2-hydroxy-1-{1-[4-(2-naphthyl)pyrimidin-2-yl]piperidin-4-yl}ethyl)carbamate]
fold induction at 2 µM: 1.13 | fold induction at 20 µM: 0.35

COC(=O)N1CCC(N(C)c2nccc(-c3ccc4ccccc4c3)n2)CC1 [methyl 4-{methyl[4-(2-naphthyl)pyrimidin-2-yl]amino}piperidine-1-carboxylate]
fold induction at 2 µM: 1.43 | fold induction at 20 µM: 1.47

c1ccc2cc(-c3ccnc(NCc4ccncc4)n3)ccc2c1 [4-(2-naphthyl)-N-(pyridin-4-ylmethyl)pyrimidin-2-amine]
EC50: 2.42 µM | fold induction at 2 µM: 1.41 | fold induction at 20 µM: 1.7 | A = MAX FOLD Induction/DMSO CONTROL: 2.070 fold

CC(C)(C)OC(=O)N[C@@H]1CCN(c2nccc(-c3ccc4ccccc4c3)n2)C1 [tert-butyl {(3R)-1-[4-(2-naphthyl)pyrimidin-2-yl]pyrrolidin-3-yl}carbamate]
fold induction at 2 µM: 1.95

CN(C)S(=O)(=O)N1CCC(Nc2nccc(-c3ccc4ccccc4c3)n2)CC1 [N,N-dimethyl-4-{[4-(2-naphthyl)pyrimidin-2-yl]amino}piperidine-1-sulfonamide]
EC50: 12 µM | fold induction at 2 µM: 0.97 | fold induction at 20 µM: 1.75 | A = MAX FOLD Induction/DMSO CONTROL: 3.210 fold

CS(=O)(=O)NCCC1CCN(c2nccc(-c3ccc4ccccc4c3)n2)CC1 [N-(2-{1-[4-(2-naphthyl)pyrimidin-2-yl]piperidin-4-yl}ethyl)methanesulfonamide]
A = MAX FOLD Induction/DMSO CONTROL: 0.880 fold

CN(CC1CCN(c2nccc(-c3ccc4ccccc4c3)n2)CC1)C1CCCCC1 [N-methyl-N-({1-[4-(2-naphthyl)pyrimidin-2-yl]piperidin-4-yl}methyl)cyclohexanamine]
fold induction at 2 µM: 2.87 | fold induction at 20 µM: 0.03 | A = MAX FOLD Induction/DMSO CONTROL: 2.160 fold

O=C(NCCC1CCN(c2nccc(-c3ccc4ccccc4c3)n2)CC1)c1ccccc1 [N-(2-{1-[4-(2-naphthyl)pyrimidin-2-yl]piperidin-4-yl}ethyl)benzamide]
fold induction at 2 µM: 0.91 | fold induction at 20 µM: 1.95

O=C(NCC1CCN(c2nccc(-c3ccc4ccccc4c3)n2)CC1)c1ccccc1 [N-({1-[4-(2-naphthyl)pyrimidin-2-yl]piperidin-4-yl}methyl)benzamide]
fold induction at 2 µM: 1.69

N[C@@H]1CCN(c2nccc(-c3ccc4ccccc4c3)n2)C1 [(3R)-1-[4-(2-naphthyl)pyrimidin-2-yl]pyrrolidin-3-amine]
fold induction at 2 µM: 1.62 | fold induction at 20 µM: 0.01

CC(=O)NCC1CCN(c2nccc(-c3ccc4ccccc4c3)n2)CC1 [N-({1-[4-(2-naphthyl)pyrimidin-2-yl]piperidin-4-yl}methyl)acetamide]
C = TCF ACTIVITY/DMSO CONTROL Fold induction @ 20.0 uM (20.0 uM compound, 20 µM): 2.500 fold | EC50: 1.9 µM | fold induction at 2 µM: 1.63 | fold induction at 20 µM: 2.71 | A = MAX FOLD Induction/DMSO CONTROL: 2.273 fold

NCC[C@H]1CCCN1c1nccc(-c2ccc3ccccc3c2)n1 [2-{(2R)-1-[4-(2-naphthyl)pyrimidin-2-yl]pyrrolidin-2-yl}ethanamine]
fold induction at 2 µM: 2.72 | fold induction at 20 µM: 0.01 | A = MAX FOLD Induction/DMSO CONTROL: 2.270 fold

c1ccc2cc(-c3ccnc(NC4CCCNCC4)n3)ccc2c1 (stereo not drawn) [N-[4-(2-naphthyl)pyrimidin-2-yl]azepan-4-amine]
EC50: 16.1 µM | fold induction at 2 µM: 1.11 | fold induction at 20 µM: 4.87 | A = MAX FOLD Induction/DMSO CONTROL: 6.080 fold

CN(C)[C@H]1CCN(C[C@@H]2CCN(c3nccc(-c4ccc5ccccc5c4)n3)C2)C1 [(3S)—N,N-dimethyl-1-({(3S)-1-[4-(2-naphthyl)pyrimidin-2-yl]pyrrolidin-3-yl}methyl)pyrrolidin-3-amine]
fold induction at 2 µM: 2.08 | fold induction at 20 µM: 0.01 | A = MAX FOLD Induction/DMSO CONTROL: 1.660 fold

c1cnc(N2CCN(c3nccc(-c4ccc5ccccc5c4)n3)CC2)nc1 [4-(2-naphthyl)-2-(4-pyrimidin-2-ylpiperazin-1-yl)pyrimidine]
fold induction at 2 µM: 1.02 | fold induction at 20 µM: 1.24

O=CN1CC[C@@H](Nc2nccc(-c3ccc4ccccc4c3)n2)C1 [(3R)-3-{[4-(2-naphthyl)pyrimidin-2-yl]amino}pyrrolidine-1-carbaldehyde]
EC50: 7.17 µM | fold induction at 2 µM: 1.03 | fold induction at 20 µM: 2.69 | A = MAX FOLD Induction/DMSO CONTROL: 5.305 fold

CN(C)C(=O)N1CCC(Nc2nccc(-c3ccc4ccccc4c3)n2)CC1 [N,N-dimethyl-4-{[4-(2-naphthyl)pyrimidin-2-yl]amino}piperidine-1-carboxamide]
EC50: 0.64 µM | fold induction at 2 µM: 1.13 | fold induction at 20 µM: 1.58 | A = MAX FOLD Induction/DMSO CONTROL: 1.810 fold

CN(CCN(C)[C@@H]1CCN(c2nccc(-c3ccc4ccccc4c3)n2)C1)C(=O)c1ccccc1 [N-methyl-N-[2-(methyl{(3R)-1-[4-(2-naphthyl)pyrimidin-2-yl]pyrrolidin-3-yl}amino)ethyl]benzamide]
fold induction at 2 µM: 1.3

O=C(N[C@H]1CCN(c2nccc(-c3ccc4ccccc4c3)n2)C1)C(F)(F)F [2,2,2-trifluoro-N-{(3S)-1-[4-(2-naphthyl)pyrimidin-2-yl]pyrrolidin-3-yl}acetamide]
EC50: 25.9 µM | fold induction at 2 µM: 1.59 | fold induction at 20 µM: 1.66 | A = MAX FOLD Induction/DMSO CONTROL: 3.620 fold

c1ccc2cc(-c3ccnc(N4CC[C@@H]5CNC[C@@H]5C4)n3)ccc2c1 [(3aR,7aS)-5-[4-(2-naphthyl)pyrimidin-2-yl]octahydro-1H-pyrrolo[3,4-c]pyridine]
fold induction at 2 µM: 1.8

N=C(N)OC(=N)NCCN1CCN(c2nccc(-c3ccc4ccccc4c3)n2)CC1 [N-(2-{4-[4-(2-naphthyl)pyrimidin-2-yl]piperazin-1-yl}ethyl)dicarbonimidic diamide]
fold induction at 2 µM: 1.22 | fold induction at 20 µM: 0.49
